Patent US7108845B2, “Methods of synthesis and use of radiolabelled platinum chemotherapeutic agents” (Australian Nuclear Science & Technology Organisation, priority 2000, dated 2006)

Tests used:
oesophageal cancer [1] = experiment: Response to normal cisplatin chemotherapy in combination with radiation; assay type: in vivo, patients; conditions: Patient No. 1, after 2 months
Description: (§1) Patient No. 1 had oesophageal cancer, with one large lesion in the mediastinal region and large metastases in the liver. F-18-DG imaging confirmed the presence of both lesions. The patient was injected with ^195mPt-Cisplatin (100 MBq; specific activity 4.2 MBq/mg cisplatin) and imaged over a 5 day period. […] The patient was placed on a normal cisplatin chemotherapy in combination with radiation.

oesophageal cancer [2] = experiment: Pilot clinical study: imaging of uptake of ^195mPt-Cisplatin in lesions; assay type: in vivo, patients
Description: As part of a pilot study to evaluate the use of ^195mPt-Cisplatin and ^195mPt Carboplatin for prognosis of cancer, two patients were injected with ^195mPt-Cisplatin prepared as described in Example 2.
as §1
Patient No. 2 had oesophageal cancer. CT confirmed a large lesion in the mediastinal region. The patient was injected with ^195mPt-Cisplatin (50 MBq: specific activity 3.6 MBq/mg cisplatin) and Imaged over a 3 day period. […] The patient has undergone cisplatin chemotherapy and is being monitored for response to treatment.

Structure (SMILES)	response to treatment (oesophageal cancer [1])	uptake of the radiolabelled cisplatin in lesions (oesophageal cancer [2]; Patient No. 1, lesion in mediastinal region and liver metastases, injected 100 MBq (4.2 MBq/mg cisplatin), imaged over a 5 day period)	uptake of the ^195mPt-Cisplatin in the mediastinal region (oesophageal cancer [2]; Patient No. 2, large lesion in mediastinal region, injected 50 MBq (3.6 MBq/mg cisplatin), imaged over a 3 day period)
N.N.[Cl][Pt][Cl] [cisplatin, cis-dichlorodiammine-platinum(II)]	no evidence of response to treatment	–	–
N.N.[Cl][195Pt][Cl] [^195mPt-Cisplatin, [^195mPt]Cisplatin]	–	negligible uptake	significant uptake
